{
  "source": "patent US7183320B2",
  "about": "“Benzoylsulfonamides and sulfonylbenzamidines for use as antitumour agents” (Eli Lilly and Company, priority 2002, dated 2007)",
  "assay_type_in_all_cases": "in vivo",
  "key": {"[1]": {"test_system": "HUMAN COLON ADENOCARCINOMA-HCT116", "assay": "Early stage human colon adenocarcinoma HCT116 xenograft (Table IV)", "conditions": "Balb/C SCID female mice", "text": "(§1) Conventional Murine Tumor and Human Tumor Xenouraft Assays\n(§2) Inhibition of tumors transplanted into mice is an accepted procedure for studying the efficacy of antitumor agents (Corbett, et al., In vivo Methods for Screening and Preclinical Testing; Use of rodent solid tumors for drug discovery., In: Anticancer Drug Development Guide: Preclinical Screening, Clinical Trials, and Approval, B. Teicher (ed), Humana Press Inc., Totowa, N.J., Chapter 5, pages 75–99 (1997); (Corbett, et al., Int., J. Parmacog., 33, Supplement, 102–122 (1995)). Murine tumors or human xenographs were implanted essentially as described by Corbett in In vivo Methods for Screening and Preclimical Testing; Use of rodent solid tumors for drug discovery. Briefly, the murine tumor or human xenograph was implanted subcutaneously using either 12-gauge trocar implants or counted number of cells. The location for the trocar insertion is midway between the axillary and inguinal region along the side of the mouse. The trocar is slipped approximately ¾ of an inch subcutaneously up toward the axilla before discharging the tumor fragment, and pinching the skin as the trocar is removed., Alternatively, human tumor cells prepared from a […] of donor tumors (5×10^6 cells) were implanted subcutaneously in a hind-leg of a male or female nude mouse (Charles River). Either a test compound in vehicle or vehicle alone was administered by intravenous bolus injection (iv), intraperitoneal injection (ip), or oral gavage (po). Each treatment group, as well as a group of untreated control animals, consisted of five animals per group in each experiment. Subcutaneous tumor response was monitored by tumor volume measurement performed twice each week over the course of the experiment (60–120 days). Body weights were taken as a general measure of toxicity. The subcutaneous tumor data were analyzed by determining the median tumor weight for each treatment group over the course of the experiment and calculating the tumor growth delay as the difference in days for the treatment versus the control tumors to reach a volume of either 500 or 1000 mm^3.\n(§3) The compound of Example 110 was tested against a variety of murine and human tumors substantially as described supra. The parameters measured in each experiment are summarized in the following paragraphs. • Tumor Weight(mg)=(a×b^2)/2 where a=tumor length (mm) and b=tumor width (mm). • Tumor Growth Delay=T−C where T is the median time (days) required for the treatment group tumors to reach a predetermined size, and C is the median time (days) for the control group tumors to reach the same size. Tumor-free survivors are excluded from this calculation, and are tabulated separately (Tumor Free).\n(§4) [formula] • where Tumor Growth Delay is as previously defined and Td is tumor volume doubling time (days), estimated from the best fit straight line from a log-linear growth plot of the control group of tumors in exponential growth (100–800 mg range) • % T/C mass—The treatment and control groups are measured when the control group tumors reach approximately 700 to 1200 mg in size (median group). The median tumor weight of each group is determined (including zeros). The T/C value in percent is an indication of antitumor effectiveness. A T/C≦42% is considered significant antitumor activity. A T/C<10% is considered to indicate highly significant antitumor activity. • Body Weight Loss Nadir—A body weight loss nadir (mean of group) of greater than 20% or drug deaths greater than 20% are considered to indicate an excessively toxic dosage in single course trials. • Activity Rating—the Activity Rating is derived from the Log Kill according to the following table: […]"}, "HUMAN BREAST WSU-Br-1": {"test_system": "HUMAN BREAST WSU-Br-1", "assay": "Upstaged human breast WSU-Br-1 xenograft (Table VIII)", "conditions": "Balb/C SCID female mice", "text": "as §1, §2, §3, §4"}, "HUMAN OVARIAN BG-1": {"test_system": "HUMAN OVARIAN BG-1", "assay": "Early stage human ovarian BG-1 xenograft (Table IX)", "conditions": "Balb/C SCID female mice", "text": "as §1, §2, §3, §4"}, "[2]": {"test_system": "HUMAN SQUAMOUS CELL LUNG CARCINOMA MRI-H165", "assay": "Early stage human squamous cell lung carcinoma MRI-H165 xenograft (Table XI)", "conditions": "total dose 600 mg/kg: 100 mg/kg/injection IV on days 3–5 and 10–12; Balb/C SCID female mice", "text": "as §1, §2, §3, §4"}, "[3]": {"test_system": "TAXOL RESISTANT HUMAN COLON ADENOCARCINOMA #15/MDR", "assay": "Early stage taxol resistant human colon adenocarcinoma #15/MDR xenograft (Table XII)", "conditions": "total dose 500 mg/kg: 100 mg/kg/injection IV on days 3–5 and 13–14; Balb/C SCID female mice", "text": "as §1, §2, §3, §4"}, "[4]": {"conditions": "total dose 280 mg/kg: 70 mg/kg/injection IV on days 3, 4, 5, and 9"}, "[5]": {"conditions": "total dose 560 mg/kg: 140 mg/kg/injection IV on days 3, 4, 5, and 9"}, "[6]": {"conditions": "total dose 500 mg/kg: 100 mg/kg/injection IV on days 11–13 and 19–20"}, "[7]": {"conditions": "total dose 725 mg/kg: 145 mg/kg/injection IV on days 11–13 and 19–20"}, "[8]": {"conditions": "total dose 600 mg/kg: 100 mg/kg/injection IV on days 3–5 and 9–11"}, "[9]": {"conditions": "total dose 870 mg/kg: 145 mg/kg/injection IV on days 3–5 and 9–11"}},
  "data": [
    {"smiles": "O=C(NS(=O)(=O)c1ccccc1)c1ccc(Cl)cc1Cl", "note": "[Example 110, N-[2,4-dichlorobenzoyl]phenylsulfonamide]", "values": [
      {"measurement": "% BODY WT LOSS AT NADIR", "setting": "[1]; [4]", "value": 0, "unit": "%"},
      {"measurement": "% T/C MASS", "setting": "[1]; [4]", "value": 0, "unit": "%"},
      {"measurement": "ACTIVITY RATING", "setting": "[1]; [4]", "value": "++++ (HIGHLY ACTIVE >2.8)"},
      {"measurement": "DRUG DEATHS", "setting": "[1]; [4]", "value": "0/5"},
      {"measurement": "GROWTH DELAY", "setting": "[1]; [4]", "value": 28, "unit": "days"},
      {"measurement": "LOG KILL", "setting": "[1]; [4]", "value": 3.4},
      {"measurement": "TUMOR FREE AT DAY 115", "setting": "[1]; [4]", "value": "2/5"},
      {"measurement": "% BODY WT LOSS AT NADIR", "setting": "[1]; [5]", "value": "−4.0", "unit": "%"},
      {"measurement": "% T/C MASS", "setting": "[1]; [5]", "value": 0, "unit": "%"},
      {"measurement": "ACTIVITY RATING", "setting": "[1]; [5]", "value": "++++ (HIGHLY ACTIVE >2.8)"},
      {"measurement": "DRUG DEATHS", "setting": "[1]; [5]", "value": "0/5"},
      {"measurement": "GROWTH DELAY", "setting": "[1]; [5]", "value": 56, "unit": "days"},
      {"measurement": "LOG KILL", "setting": "[1]; [5]", "value": 6.7},
      {"measurement": "TUMOR FREE AT DAY 115", "setting": "[1]; [5]", "value": "2/5"},
      {"measurement": "% BODY WT LOSS AT NADIR", "setting": "HUMAN BREAST WSU-Br-1; [6]", "value": "+14%"},
      {"measurement": "% T/C MASS", "setting": "HUMAN BREAST WSU-Br-1; [6]", "value": 0, "unit": "%"},
      {"measurement": "ACTIVITY RATING", "setting": "HUMAN BREAST WSU-Br-1; [6]", "value": "++++ (HIGHLY ACTIVE >2.8)"},
      {"measurement": "DRUG DEATHS", "setting": "HUMAN BREAST WSU-Br-1; [6]", "value": "0/5"},
      {"measurement": "GROWTH DELAY", "setting": "HUMAN BREAST WSU-Br-1; [6]", "value": 39, "unit": "days"},
      {"measurement": "LOG KILL", "setting": "HUMAN BREAST WSU-Br-1; [6]", "value": 2.0},
      {"measurement": "TUMOR FREE AT DAY 179", "setting": "HUMAN BREAST WSU-Br-1; [6]", "value": "2/5"},
      {"measurement": "% BODY WT LOSS AT NADIR", "setting": "HUMAN BREAST WSU-Br-1; [7]", "value": "+3.9%"},
      {"measurement": "% T/C MASS", "setting": "HUMAN BREAST WSU-Br-1; [7]", "value": 0, "unit": "%"},
      {"measurement": "ACTIVITY RATING", "setting": "HUMAN BREAST WSU-Br-1; [7]", "value": "++++ (HIGHLY ACTIVE >2.8)"},
      {"measurement": "DRUG DEATHS", "setting": "HUMAN BREAST WSU-Br-1; [7]", "value": "0/5"},
      {"measurement": "GROWTH DELAY", "setting": "HUMAN BREAST WSU-Br-1; [7]", "value": 57, "unit": "days"},
      {"measurement": "LOG KILL", "setting": "HUMAN BREAST WSU-Br-1; [7]", "value": 2.9},
      {"measurement": "TUMOR FREE AT DAY 179", "setting": "HUMAN BREAST WSU-Br-1; [7]", "value": "2/5"},
      {"measurement": "% BODY WT LOSS AT NADIR", "setting": "HUMAN OVARIAN BG-1; [8]", "value": "−3.0", "unit": "%"},
      {"measurement": "% T/C MASS", "setting": "HUMAN OVARIAN BG-1; [8]", "value": 0, "unit": "%"},
      {"measurement": "ACTIVITY RATING", "setting": "HUMAN OVARIAN BG-1; [8]", "value": "++++ (HIGHLY ACTIVE >2.8)"},
      {"measurement": "DRUG DEATHS", "setting": "HUMAN OVARIAN BG-1; [8]", "value": "0/5"},
      {"measurement": "GROWTH DELAY", "setting": "HUMAN OVARIAN BG-1; [8]", "value": 30, "unit": "days"},
      {"measurement": "LOG KILL", "setting": "HUMAN OVARIAN BG-1; [8]", "value": 3.6},
      {"measurement": "TUMOR FREE AT DAY 176", "setting": "HUMAN OVARIAN BG-1; [8]", "value": "0/5"},
      {"measurement": "% BODY WT LOSS AT NADIR", "setting": "HUMAN OVARIAN BG-1; [9]", "value": "−2.0", "unit": "%"},
      {"measurement": "% T/C MASS", "setting": "HUMAN OVARIAN BG-1; [9]", "value": 0, "unit": "%"},
      {"measurement": "ACTIVITY RATING", "setting": "HUMAN OVARIAN BG-1; [9]", "value": "++++ (HIGHLY ACTIVE >2.8)"},
      {"measurement": "DRUG DEATHS", "setting": "HUMAN OVARIAN BG-1; [9]", "value": "0/5"},
      {"measurement": "GROWTH DELAY", "setting": "HUMAN OVARIAN BG-1; [9]", "value": 30.5, "unit": "days"},
      {"measurement": "LOG KILL", "setting": "HUMAN OVARIAN BG-1; [9]", "value": 3.7},
      {"measurement": "TUMOR FREE AT DAY 176", "setting": "HUMAN OVARIAN BG-1; [9]", "value": "1/5"},
      {"measurement": "% BODY WT LOSS AT NADIR", "setting": "[2]", "value": "−2.1", "unit": "% ^"},
      {"measurement": "% T/C MASS", "setting": "[2]", "value": 0, "unit": "%"},
      {"measurement": "ACTIVITY RATING", "setting": "[2]", "value": "++++ (HIGHLY ACTIVE >2.8)"},
      {"measurement": "DRUG DEATHS", "setting": "[2]", "value": "0/5"},
      {"measurement": "GROWTH DELAY", "setting": "[2]", "value": 31, "unit": "days"},
      {"measurement": "LOG KILL", "setting": "[2]", "value": 3.7},
      {"measurement": "TUMOR FREE AT DAY 55", "setting": "[2]", "value": "0/5"},
      {"measurement": "% BODY WT LOSS AT NADIR", "setting": "[3]", "value": "+2.1% ^"},
      {"measurement": "% T/C MASS", "setting": "[3]", "value": 10, "unit": "%"},
      {"measurement": "ACTIVITY RATING", "setting": "[3]", "value": "++ (1.3–1.9)"},
      {"measurement": "DRUG DEATHS", "setting": "[3]", "value": "0/5"},
      {"measurement": "GROWTH DELAY", "setting": "[3]", "value": 11, "unit": "days"},
      {"measurement": "LOG KILL", "setting": "[3]", "value": 1.4},
      {"measurement": "TUMOR FREE AT DAY 38", "setting": "[3]", "value": "0/5"}
    ]}
  ]
}
